Test results: patent US8883130B2, “Transparent antiperspirant gels” (Henkel AG & Co. KGaA, priority 2008, dated 2014)

Assay: Emulsion stability with silicone-free water-in-oil emulsifiers
Format: physicochemical

- stability of the emulsion: did not yield stable emulsions
Substance: Laureth-2
